Entries after “also recorded” stand apart in the source; their conditions may differ.
Assays:
Tester strain TA98 = assay: Ames test (bacterial reverse mutation), strain TA98; assay type: cell-based, Salmonella typhimurium; conditions: TA98, all tested concentrations
Description: The mutagenic potential of M13 was assessed using the Ames test. The Ames test, or bacterial reverse mutation test, introduced by Bruce Ames and his group in the early 1970s, is currently widely employed to assess the mutagenic potential of chemical compounds. In this biological assay, several strains of Salmonella ryphimurium carrying mutations in genes responsible for histidine synthesis are used, so these strains cannot produce this critical amino acid. […]
M13 at concentrations of […] and positive (NaN3; 2-nitrofluorene (NF) and 2-amonoanthracene) and negative (PBS) controls were tested on two tester strains; TA98 reverted from histidine dependence (auxotrophy) to histidine independence (prototrophy) by frameshift mutagens and tester TA100 reverted by mutagens that cause both frameshift and base pair substitution mutations. The colony numbers on the negative, positive control and M13 treated plates were determined by manual counting. The mean number of revertants per plate, the standard deviation, and the mutation factor (i.e., mean number of revertants on the test item plate/mean number of revertants on the vehicle plate) were calculated.
Next, the mutagenic potential of M13 using a Salmonella typhimurium reverse mutation assay were assessed (Ames test). […]

SPHK2 = SPHK2 (Homo sapiens, UniProt Q9NRA0); assay: Radiometric 33P kinase assay, 17 Lipid Kinase Panel; assay type: biochemical; conditions: 20 μM M13, 10 μM ATP; read-out: inhibition of enzyme activity relative to control
Text: It was hypothesized that M13 may target kinases to reduce the inflammatory response. Determination and improvement of the selectivity of a compound by screening a large part of the kinome are of pivotal importance in the discovery of M13 signaling pathways for its anti-inflammatory activities. Radiometric assays were used based on the transfer of ^33P-labeled phosphate from ATP to the kinase substrates found in the 376 Wild Type Kinase Panel and 17 Lipid Kinase Panel (Reaction Biology) and a broad kinase selectivity screen for the inhibitory activity of M13 was performed. Briefly, radiometric assays are based on the transfer of 10 μM ^33P-labelled phosphate from ATP to the kinase substrate. […] FIGS. 2A and 2B show the targeted inhibitor effects of M13 on lipid kinases (FIG. 2A) and protein kinases (FIG. 2B).

human T lymphocytes = assay: Immunogenic effects on T lymphocytes in cultured PBMCs (flow cytometry); assay type: cell-based; conditions: 20 μM, 4-day, vs SC and standard control
Description: (§1) PBMCs were provided by STEMCELL Technologies (STEMCELL Canada Inc.) and maintained in ImmunoCult™-XF T-cell Expansion Medium (Cat #10981). HIEC-6 cells were maintained in OptiMEM 1 Reduced Serum Medium supplemented with 20 mM HEPES, 10 mM GlutaMAX, 10 ng/mL Epidermal Growth Factor, 4% (v/v) fetal bovine serum (FBS), and 1% penicillin-streptomycin (PS). HCT-116 cells were maintained in ATCC-formulated McCoy's 5a medium, supplemented with 10% (v/v) FBS and 1% PS. Caco-2/BBe cells were grown in DMEM supplemented with 10% (v/v) FBS and 1% PS (v/v). Human colon cancer stem cells (HC-CSC) were maintained in complete growth media with serum and antibiotics (Cat #M36112-39S) from Celprogen Inc. (Torrance, CA, USA).
To evaluate the immunogenic effects of M13 on human T lymphocytes, PBMCs were cultured in blank medium (standard control), medium containing CD3/CD28 activator (positive control), medium containing solvent (solvent control, SC), and medium containing M13 solution (20 μM). All the groups were cultured in the presence or absence of interleukin-2 (IL-2). After a 4-day incubation, PBMCs were labeled with immunofluorescent dyes and analyzed using flow cytometry.

HC-CSC = assay: MTT viability assay, 2D culture; assay type: cell-based, human
Description: as §1
(§2) The […] (MTT) assay was used to study the effects of M13 on the viability of four 2D-cultured human intestinal cell lines (HIEC-6, HCT-116, Caco-2/BBe, and HC-CSC).

HCT-116 = assay: MTT viability assay, 2D culture; assay type: cell-based, human
Description: as §1, §2

Caco-2/BBe cells = assay: MTT viability assay, 2D culture; assay type: cell-based, human
Description: as §1, §2
Next, the anti-cancer activities of free M13, NL, and M13-NL were compared against Caco-2/BBe cells.

[1] = tested on: 3D-cultured Caco-2/BBe cells; assay: 3D droplet-based cell spheroid model, long-term cytotoxicity; conditions: Homo sapiens, Caco-2, 264 h, 11 days
Description: To assess the long-term cytotoxicity of M13 against cancer cells, a 3D droplet-based Caco-2/BBe cell spheroid model was established using 3D printing. The diameter of the 3D cell spheres was approximately 1.65-1.75 mm. The 3D-cultured cells were incubated with different concentrations of M13 for 11 days, and droplet size (calculated using scanned images) and viability (live/dead cell staining and intracellular ATP) were analyzed (FIG. 12C). […] The cell viability of the M13-treated spheres was normalized as a percentage of the negative control (NC, 100% viable, without M13 treatment).

cancer-related proteins = assay: Proteome Profiler Human XL Oncology Array on Caco-2/BBe cell lysates; assay type: cell-based; conditions: 24 hours
Description: The mechanism by which M13 exerts its anti-cancer effects was explored. Cell lysates of Caco-2/BBe cells incubated for 24 hours with free M13, NL, or M13-NL were hybridized on cancer-related protein array membranes (Proteome Profiler™ Human XL Oncology Array), and cell cycle control/phosphorylation profiling protein antibody microarray slides (Cell Cycle Control Phospho Antibody Array).

Vero cells = conditions: added one-hour post-infection setting
Description: Virus and formulations were then left on the cells for the entire duration of the experiment (24 hours). The cytotoxicity of the same range of concentrations of formulations was determined by MTT assay.
The antiviral plates were incubated for 1 hour at 37° C., 5% CO2. The cytotoxicity plates were incubated for 24 hours at 37° C., 5% CO2.
After 24 hours, the infection plates were washed with PBS, fixed for 30 minutes with 4% formaldehyde, washed again with PBS, and stored in PBS at 4° C. until staining. The cytotoxicity plate was treated with MTT to determine cell viability.
Cytotoxicity was detected by MTT assay. Briefly, the MTT reagent (Sigma, M5655) was added to the cells for 2 hours at 37° C., 5% CO2, after which the media was removed, and the precipitate solubilized with a mixture of 1:1 Isopropanol: DMSO for 20 minutes. The supernatant was transferred to a clean plate and signal was read at 570 nm.

[2] = tested on: normal lung cells (IMR-90); conditions: cited from earlier work

SPHK2, sequence (Q9NRA0 whole entry): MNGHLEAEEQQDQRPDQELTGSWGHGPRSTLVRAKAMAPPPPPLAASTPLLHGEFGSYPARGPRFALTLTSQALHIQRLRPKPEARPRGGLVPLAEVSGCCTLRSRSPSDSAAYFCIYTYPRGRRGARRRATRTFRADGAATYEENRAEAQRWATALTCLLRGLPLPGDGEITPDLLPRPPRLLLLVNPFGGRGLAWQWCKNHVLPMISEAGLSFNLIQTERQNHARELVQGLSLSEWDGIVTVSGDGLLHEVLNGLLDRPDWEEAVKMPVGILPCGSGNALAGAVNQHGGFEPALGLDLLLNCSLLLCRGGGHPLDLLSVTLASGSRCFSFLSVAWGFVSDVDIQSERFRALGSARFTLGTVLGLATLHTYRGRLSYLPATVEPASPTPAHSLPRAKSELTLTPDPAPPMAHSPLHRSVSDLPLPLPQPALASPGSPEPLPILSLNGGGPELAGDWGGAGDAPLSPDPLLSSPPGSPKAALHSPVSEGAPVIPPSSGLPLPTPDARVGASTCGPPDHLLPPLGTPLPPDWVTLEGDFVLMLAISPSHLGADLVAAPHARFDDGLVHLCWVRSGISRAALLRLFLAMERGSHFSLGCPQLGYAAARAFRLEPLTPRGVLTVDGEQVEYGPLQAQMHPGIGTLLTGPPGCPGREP

## CCCCCC(CC(=O)CCc1ccc(O)c(OC)c1)SCC(NC(=O)CCC(N)C(=O)O)C(=O)NCC(=O)O (stereo not drawn) [M13, 5-glutathione-6-shogaol]
Tester strain TA98
  revertant colony numbers: did not demonstrate an increase in revertant colony numbers; also recorded: did not increase the number of revertant colonies
SPHK2
  inhibition at 20 µM: 30 to 45%
Human T lymphocytes; activated-stage (with IL-2)
  proliferation of activated CD4+ and CD8+ lymphocytes: reduced proliferation
Human T lymphocytes; resting-stage (without IL-2)
  percentages of CD4+ and CD8+ T-cell populations and T-cell proliferation status: similar
HC-CSC; HIEC-6 vs HC-CSC
  fold by which IC50 against HIEC-6 is higher: 5.8 fold
HC-CSC; Homo sapiens, 24 h incubation
  IC50: 17.4 µM
HCT-116; HIEC-6 vs HCT-116
  fold by which IC50 against HIEC-6 is higher: 2.5 fold
HCT-116; Homo sapiens, HCT-116, 24 h incubation
  IC50: 40.1 µM
Caco-2/BBe cells; HIEC-6 vs Caco-2/BBe
  fold by which IC50 against HIEC-6 is higher: 6 fold
Caco-2/BBe cells; Homo sapiens, Caco-2, 24 h
  IC50: 16.7 µM
[1]; read-out: M13 concentration at which green fluorescence intensity is significantly lower than NC, live/dead staining
  minimal effective concentration: > 80 µM
[1]; ATP content, extrapolated dose-response curve, read-out: half-maximal effective concentration (EC50)
  EC50: 182 µM
cancer-related proteins
  22 cancer-related proteins, expression vs control group: significantly down-regulated
Vero cells
  toxicity: low toxicity
[2]
  toxicity: low toxicity
